Measurements as given in ChEMBL document CHEMBL5303573, “Mapping human microbiome drug metabolism by gut bacteria and their genes” (Nature, 2019).

Legend:
[1] = The drug is tested on Collinsella intestinalis strain: DSM13280 for biotransformation. The drug concentrations were measured before and after a 12-h incubation by liquid-chromatography-coupled mass spectrometry (LC–MS); conditions: 2 µM
[2] = The drug is tested on Bacteroides caccae strain: ATCC43185 for biotransformation. The drug concentrations were measured before and after a 12-h incubation by liquid-chromatography-coupled mass spectrometry (LC–MS); conditions: 2 µM
[3] = The drug is tested on Bacteroides coprophilus strain: DSM18228 for biotransformation. The drug concentrations were measured before and after a 12-h incubation by liquid-chromatography-coupled mass spectrometry (LC–MS); conditions: 2 µM
[4] = The drug is tested on Bacteroides fragilis strain: ATCC43859 for biotransformation. The drug concentrations were measured before and after a 12-h incubation by liquid-chromatography-coupled mass spectrometry (LC–MS); conditions: 2 µM
[5] = The drug is tested on Parabacteroides merdae strain: ATCC43184 for biotransformation. The drug concentrations were measured before and after a 12-h incubation by liquid-chromatography-coupled mass spectrometry (LC–MS); conditions: 2 µM
[6] = The drug is tested on Blautia luti strain: DSM14534 for biotransformation. The drug concentrations were measured before and after a 12-h incubation by liquid-chromatography-coupled mass spectrometry (LC–MS); format: ADME; set-up: dose 2 uM, timepoint 0 vs 12 hours; conditions: 2 µM
[7] = The drug is tested on Clostridium scindens strain: ATCC35704 for biotransformation. The drug concentrations were measured before and after a 12-h incubation by liquid-chromatography-coupled mass spectrometry (LC–MS); conditions: 2 µM
[8] = The drug is tested on Clostridium sporogenes strain: ATCC15579 for biotransformation. The drug concentrations were measured before and after a 12-h incubation by liquid-chromatography-coupled mass spectrometry (LC–MS); conditions: 2 µM
[9] = The drug is tested on Enterococcus faecalis strain: V583 for biotransformation. The drug concentrations were measured before and after a 12-h incubation by liquid-chromatography-coupled mass spectrometry (LC–MS); conditions: 2 µM
[10] = The drug is tested on Providencia rettgeri strain: DSM1131 for biotransformation. The drug concentrations were measured before and after a 12-h incubation by liquid-chromatography-coupled mass spectrometry (LC–MS); format: ADME; set-up: dose 2 uM, timepoint 0 vs 12 hours; conditions: 2 µM
[11] = bifidobacterium adolescentis, 12 h, 2 µM
Description: The drug is tested on Bifidobacterium adolescentis strain: ATCC 15703 for biotransformation. The drug concentrations were measured before and after a 12-h incubation by liquid-chromatography-coupled mass spectrometry (LC–MS)

[12] = bacteroides eggerthii, 12 h, 2 µM
Description: The drug is tested on Bacteroides eggerthii strain: DSM20697 for biotransformation. The drug concentrations were measured before and after a 12-h incubation by liquid-chromatography-coupled mass spectrometry (LC–MS)

[13] = bacteroides intestinalis, 12 h, 2 µM
Description: The drug is tested on Bacteroides intestinalis strain: DSM17393 for biotransformation. The drug concentrations were measured before and after a 12-h incubation by liquid-chromatography-coupled mass spectrometry (LC–MS)

[14] = bacteroides thetaiotaomicron, 12 h, 2 µM
Description: The drug is tested on Bacteroides thetaiotaomicron strain: VPI-5482 for biotransformation. The drug concentrations were measured before and after a 12-h incubation by liquid-chromatography-coupled mass spectrometry (LC–MS)

[15] = bacteroides thetaiotaomicron, 12 h, 2 µM; remark: listed apart in the source
Description: The drug is tested on Bacteroides thetaiotaomicron strain: 3731 for biotransformation. The drug concentrations were measured before and after a 12-h incubation by liquid-chromatography-coupled mass spectrometry (LC–MS)

[16] = limosilactobacillus reuteri cf48-3a, 12 h, 2 µM
Description: The drug is tested on Lactobacillus reuteri CF48-3A strain: BEI HM-102 for biotransformation. The drug concentrations were measured before and after a 12-h incubation by liquid-chromatography-coupled mass spectrometry (LC–MS)

[17] = victivallis vadensis, 12 h, 2 µM
Description: The drug is tested on Victivallis vadensis strain: ATCC BAA-548 for biotransformation. The drug concentrations were measured before and after a 12-h incubation by liquid-chromatography-coupled mass spectrometry (LC–MS)

[18] = The drug is tested on Bacteroides xylanisolvens strain: DSM18836 for biotransformation. The drug concentrations were measured before and after a 12-h incubation by liquid-chromatography-coupled mass spectrometry (LC–MS); conditions: 2 µM
[19] = parabacteroides johnsonii, 12 h, 2 µM
Description: The drug is tested on Parabacteroides johnsonii strain: DSM18315 for biotransformation. The drug concentrations were measured before and after a 12-h incubation by liquid-chromatography-coupled mass spectrometry (LC–MS)

[20] = The drug is tested on Clostridium ramosum strain: DSM1402 for biotransformation. The drug concentrations were measured before and after a 12-h incubation by liquid-chromatography-coupled mass spectrometry (LC–MS); conditions: thomasclavelia ramosa, 2 µM

With `NS(=O)(=O)c1cc2c(cc1Cl)N=C(CSCc1ccccc1)NS2(=O)=O` [BENZTHIAZIDE] the “Bacterial Biotransformation” value [1] was “Compound NOT metabolized”, the “Bacterial Biotransformation” value [2] was “Compound NOT metabolized” and the “Bacterial Biotransformation” value [3] was “Compound NOT metabolized”. The “Bacterial Biotransformation” value [4] was “Compound NOT metabolized”, the “Bacterial Biotransformation” value [5] was “Compound NOT metabolized” and the “Bacterial Biotransformation” value [6] was “Compound NOT metabolized”. The “Bacterial Biotransformation” value [7] was “Compound NOT metabolized”, the “Bacterial Biotransformation” value [8] was “Compound NOT metabolized” and the “Bacterial Biotransformation” value [9] was “Compound NOT metabolized”. The “Bacterial Biotransformation” value [10] was “Compound NOT metabolized”, the “Bacterial Biotransformation” value [11] was “Compound NOT metabolized” and the “Bacterial Biotransformation” value [12] was “Compound NOT metabolized”. For the same compound, the “Bacterial Biotransformation” value [13] was “Compound NOT metabolized”, the “Bacterial Biotransformation” value [14] was “Compound NOT metabolized” and the “Bacterial Biotransformation” value [15] was “Compound NOT metabolized”. The “Bacterial Biotransformation” value [16] was “Compound NOT metabolized” and the “Bacterial Biotransformation” value [17] was “Compound NOT metabolized”.
In the case of `CC(C)(Oc1ccc(CCNC(=O)c2ccc(Cl)cc2)cc1)C(=O)O` [BEZAFIBRATE], the “Bacterial Biotransformation” value [1] is reported as “Compound metabolized”, the “Bacterial Biotransformation” value [2] is reported as “Compound metabolized” and the “Bacterial Biotransformation” value [3] is reported as “Compound metabolized”. For the same compound, the “Bacterial Biotransformation” value [4] was “Compound metabolized”, the “Bacterial Biotransformation” value [18] was “Compound metabolized” and the “Bacterial Biotransformation” value [5] was “Compound metabolized”. The “Bacterial Biotransformation” value [6] was “Compound metabolized”, the “Bacterial Biotransformation” value [7] was “Compound metabolized” and the “Bacterial Biotransformation” value [8] was “Compound metabolized”. The “Bacterial Biotransformation” value [9] was “Compound NOT metabolized”, the “Bacterial Biotransformation” value [10] was “Compound metabolized” and the “Bacterial Biotransformation” value [11] was “Compound metabolized”. The “Bacterial Biotransformation” value [12] was “Compound metabolized”, the “Bacterial Biotransformation” value [13] was “Compound metabolized” and the “Bacterial Biotransformation” value [14] was “Compound metabolized”. For the same compound, the “Bacterial Biotransformation” value [15] was “Compound metabolized”, the “Bacterial Biotransformation” value [19] was “Compound NOT metabolized” and the “Bacterial Biotransformation” value [16] was “Compound metabolized”. For the same compound, the “Bacterial Biotransformation” value [17] was “Compound NOT metabolized”.
For `CC(C)C[C@H]1C(=O)N2CCC[C@H]2[C@]2(O)O[C@](NC(=O)[C@@H]3C=C4c5cccc6[nH]c(Br)c(c56)C[C@H]4N(C)C3)(C(C)C)C(=O)N12.CS(=O)(=O)O` [BROMOCRIPTINE MESYLATE], the “Bacterial Biotransformation” value [1] was “Compound metabolized”, the “Bacterial Biotransformation” value [2] was “Compound metabolized” and the “Bacterial Biotransformation” value [3] was “Compound metabolized”. For the same compound, the “Bacterial Biotransformation” value [18] was “Compound metabolized”, the “Bacterial Biotransformation” value [5] was “Compound metabolized” and the “Bacterial Biotransformation” value [6] was “Compound metabolized”. The “Bacterial Biotransformation” value [20] was “Compound metabolized”, the “Bacterial Biotransformation” value [7] was “Compound metabolized” and the “Bacterial Biotransformation” value [8] was “Compound metabolized”. The “Bacterial Biotransformation” value [10] was “Compound metabolized”, the “Bacterial Biotransformation” value [11] was “Compound metabolized” and the “Bacterial Biotransformation” value [12] was “Compound metabolized”. For the same compound, the “Bacterial Biotransformation” value [13] was “Compound metabolized”, the “Bacterial Biotransformation” value [14] was “Compound metabolized” and the “Bacterial Biotransformation” value [15] was “Compound metabolized”. For the same compound, the “Bacterial Biotransformation” value [19] was “Compound metabolized”, the “Bacterial Biotransformation” value [16] was “Compound metabolized” and the “Bacterial Biotransformation” value [17] was “Compound metabolized”.
For `Cc1nc2n(c(=O)c1CCN1CCC(c3noc4cc(F)ccc34)CC1)CCCC2O` (centres undefined) [PALIPERIDONE], the “Bacterial Biotransformation” value [1] was “Compound NOT metabolized”, the “Bacterial Biotransformation” value [2] was “Compound metabolized” and the “Bacterial Biotransformation” value [3] was “Compound NOT metabolized”. For the same compound, the “Bacterial Biotransformation” value [18] was “Compound metabolized”, the “Bacterial Biotransformation” value [5] was “Compound metabolized” and the “Bacterial Biotransformation” value [6] was “Compound metabolized”. The “Bacterial Biotransformation” value [20] was “Compound metabolized”, the “Bacterial Biotransformation” value [7] was “Compound metabolized” and the “Bacterial Biotransformation” value [8] was “Compound metabolized”. The “Bacterial Biotransformation” value [10] was “Compound metabolized”, the “Bacterial Biotransformation” value [11] was “Compound NOT metabolized” and the “Bacterial Biotransformation” value [12] was “Compound metabolized”. The “Bacterial Biotransformation” value [13] was “Compound metabolized”, the “Bacterial Biotransformation” value [14] was “Compound NOT metabolized” and the “Bacterial Biotransformation” value [15] was “Compound metabolized”. The “Bacterial Biotransformation” value [19] was “Compound metabolized”, the “Bacterial Biotransformation” value [16] was “Compound NOT metabolized” and the “Bacterial Biotransformation” value [17] was “Compound NOT metabolized”.
For `CCOC(=O)[C@H](CCc1ccccc1)N[C@@H](C)C(=O)N1Cc2ccccc2C[C@H]1C(=O)O`, the “Bacterial Biotransformation” value [1] was “Compound metabolized”, the “Bacterial Biotransformation” value [2] was “Compound metabolized” and the “Bacterial Biotransformation” value [3] was “Compound metabolized”. For the same compound, the “Bacterial Biotransformation” value [4] was “Compound metabolized”, the “Bacterial Biotransformation” value [18] was “Compound metabolized” and the “Bacterial Biotransformation” value [5] was “Compound NOT metabolized”. The “Bacterial Biotransformation” value [6] was “Compound NOT metabolized”, the “Bacterial Biotransformation” value [7] was “Compound NOT metabolized” and the “Bacterial Biotransformation” value [9] was “Compound NOT metabolized”. For the same compound, the “Bacterial Biotransformation” value [10] was “Compound NOT metabolized”, the “Bacterial Biotransformation” value [12] was “Compound metabolized” and the “Bacterial Biotransformation” value [13] was “Compound metabolized”. For the same compound, the “Bacterial Biotransformation” value [14] was “Compound metabolized”, the “Bacterial Biotransformation” value [15] was “Compound metabolized” and the “Bacterial Biotransformation” value [19] was “Compound metabolized”. The “Bacterial Biotransformation” value [16] was “Compound NOT metabolized” and the “Bacterial Biotransformation” value [17] was “Compound NOT metabolized”.
For `CN1C[C@H](C(=O)N[C@]2(C)O[C@@]3(O)[C@@H]4CCCN4C(=O)[C@H](Cc4ccccc4)N3C2=O)C=C2c3cccc4[nH]cc(c34)C[C@H]21.CN1C[C@H](C(=O)N[C@]2(C)O[C@@]3(O)[C@@H]4CCCN4C(=O)[C@H](Cc4ccccc4)N3C2=O)C=C2c3cccc4[nH]cc(c34)C[C@H]21.O=C(O)C(O)C(O)C(=O)O` [ERGOTAMINE TARTRATE], the “Bacterial Biotransformation” value [1] was “Compound NOT metabolized”, the “Bacterial Biotransformation” value [2] was “Compound metabolized” and the “Bacterial Biotransformation” value [3] was “Compound metabolized”. For the same compound, the “Bacterial Biotransformation” value [18] was “Compound metabolized”, the “Bacterial Biotransformation” value [5] was “Compound metabolized” and the “Bacterial Biotransformation” value [6] was “Compound metabolized”. The “Bacterial Biotransformation” value [20] was “Compound metabolized”, the “Bacterial Biotransformation” value [7] was “Compound metabolized” and the “Bacterial Biotransformation” value [8] was “Compound metabolized”. The “Bacterial Biotransformation” value [9] was “Compound NOT metabolized”, the “Bacterial Biotransformation” value [10] was “Compound metabolized” and the “Bacterial Biotransformation” value [11] was “Compound metabolized”. The “Bacterial Biotransformation” value [12] was “Compound metabolized”, the “Bacterial Biotransformation” value [13] was “Compound metabolized” and the “Bacterial Biotransformation” value [14] was “Compound metabolized”. For the same compound, the “Bacterial Biotransformation” value [15] was “Compound metabolized”, the “Bacterial Biotransformation” value [19] was “Compound metabolized” and the “Bacterial Biotransformation” value [16] was “Compound metabolized”. The “Bacterial Biotransformation” value [17] was “Compound metabolized”.
In the case of `CCOc1cc(CC(=O)N[C@@H](CC(C)C)c2ccccc2N2CCCCC2)ccc1C(=O)O` [REPAGLINIDE], the “Bacterial Biotransformation” value [1] is reported as “Compound NOT metabolized”, the “Bacterial Biotransformation” value [3] is reported as “Compound metabolized” and the “Bacterial Biotransformation” value [4] is reported as “Compound metabolized”. For the same compound, the “Bacterial Biotransformation” value [18] was “Compound metabolized”, the “Bacterial Biotransformation” value [5] was “Compound NOT metabolized” and the “Bacterial Biotransformation” value [6] was “Compound NOT metabolized”. For the same compound, the “Bacterial Biotransformation” value [7] was “Compound NOT metabolized”, the “Bacterial Biotransformation” value [9] was “Compound NOT metabolized” and the “Bacterial Biotransformation” value [10] was “Compound NOT metabolized”. The “Bacterial Biotransformation” value [11] was “Compound NOT metabolized”, the “Bacterial Biotransformation” value [12] was “Compound metabolized” and the “Bacterial Biotransformation” value [13] was “Compound metabolized”. For the same compound, the “Bacterial Biotransformation” value [15] was “Compound NOT metabolized”, the “Bacterial Biotransformation” value [19] was “Compound metabolized” and the “Bacterial Biotransformation” value [17] was “Compound NOT metabolized”.
With `CCCc1nc(C(C)(C)O)c(C(=O)OCc2oc(=O)oc2C)n1Cc1ccc(-c2ccccc2-c2nnn[nH]2)cc1` [OLMESARTAN MEDOXOMIL] the “Bacterial Biotransformation” value [2] was “Compound metabolized”, the “Bacterial Biotransformation” value [3] was “Compound metabolized” and the “Bacterial Biotransformation” value [4] was “Compound metabolized”. For the same compound, the “Bacterial Biotransformation” value [18] was “Compound metabolized”, the “Bacterial Biotransformation” value [5] was “Compound metabolized” and the “Bacterial Biotransformation” value [7] was “Compound metabolized”. For the same compound, the “Bacterial Biotransformation” value [11] was “Compound NOT metabolized”, the “Bacterial Biotransformation” value [13] was “Compound metabolized” and the “Bacterial Biotransformation” value [19] was “Compound metabolized”. The “Bacterial Biotransformation” value [16] was “Compound metabolized” and the “Bacterial Biotransformation” value [17] was “Compound metabolized”.
